Assay results as given in patent publication US11427575B2, “Antitumor compound for activating JWA gene and degrading HER2, preparation method thereof, and application thereof” (SIMCERE PHARMACEUTICAL CO., LTD., priority 2019, dated 2022).

Tested on: promoter of JWA gene
Experiment: Luciferase reporter gene under control of JWA gene promoter in HBE cells (high-throughput screening)
Format: cell-based, human
Conditions: 48 h
Excerpt: High-throughput screening (HTS) was used to identify the human bronchial epithelial (HBE) cells stably transfected with a DNA construct with a luciferase gene under control of a 2,000 bp long promoter of JWA gene.
FIG. 1 is a sequence containing the 2000 bp promoter sequence of JWA gene that was used for a luciferase reporter gene plasmid construction.

| SMILES | fluorescence intensity of reporter gene (0.05 μg/mL) | fluorescence intensity of reporter gene (0.10 μg/mL) | fluorescence intensity of reporter gene (0.21 μg/mL) | fluorescence intensity of reporter gene (0.41 μg/mL) | fluorescence intensity of reporter gene (0.83 μg/mL) | fluorescence intensity of reporter gene (1.65 μg/mL) | fluorescence intensity of reporter gene (3.30 μg/mL) |
| --- | --- | --- | --- | --- | --- | --- | --- |
| COc1cccc2sc(Nc3nc4c(F)ccc(F)c4s3)nc12 [JAC1011, 4,7-difluoro-n-(4-methoxybenzo-thiazole-2-group) benzoylthiazole-2-amine] | 13255.33 | 13553.33 | 15397.33 | 19835.00 | 25886.67 | 31413.33 | 39676.33 |
| COc1cccc2sc(Nc3nc4c(F)cc(F)cc4s3)nc12 [JAC1012, 4,6-difluoro-n-(4-methoxylbenzene (d)thiazole-2-group) benzene (d) thiazole-2-amine] | 13448.67 | 13518.67 | 16205.00 | 19768.67 | 25237.33 | 33228.00 | 41139.33 |
| COc1cccc2sc(Nc3nc4c(C(F)(F)F)cccc4s3)nc12 [JAC1013, 4-methoxy-N-(4-(trifluoromethyl)benzo (d)thiazole-2-group) benzo (d) thiazole-2-amine] | 13315.33 | 12346.00 | 14926.00 | 16036.67 | 20014.00 | 26261.67 | 35332.33 |
| COc1ccc(OC)c2sc(Nc3nc4c(F)cccc4s3)nc12 [JAC1014, N-(4-fluorobenzoyl (d)thiazole-2-group)-4,7-dimethoxy benzozoyl (d) thiazole-2-amine] | 13835.33 | 14254.00 | 15262.67 | 18680.00 | 22088.00 | 28702.00 | 37664.67 |
| COc1cc(OC)c2nc(Nc3nc4c(F)cccc4s3)sc2c1 [JAC1015, N-(4-fluorobenzoyl (d)thiazole-2-group)-4,6-dimethoxy benzozoyl (d) thiazole-2-amine] | 14335.33 | 15573.33 | 18260.67 | 22168.67 | 28162.67 | 30168.67 | 37663.33 |
| COc1ccc(OC)c2sc(Nc3nc4c(C(F)(F)F)cccc4s3)nc12 [JAC1016, 4,7-dimethoxyn-(4-(trifluoromethyl)benzene (d)thiazole-2-group) benzene (d) thiazole-2-amine] | 14360.00 | 16238.00 | 19226.00 | 24518.00 | 28746.00 | 32253.33 | 36361.67 |
| COc1cc(OC)c2nc(Nc3nc4c(C(F)(F)F)cccc4s3)sc2c1 [JAC1017, 4,6-dimethoxyn-(4-(trifluoromethyl)benzo (d)thiazole-2-group) benzo (d) thiazole-2-amine] | 12910.00 | 13086.67 | 14460.00 | 17188.00 | 22680.00 | 28406.00 | 37426.00 |
